Measurements reported in patent US20240025884A1 (Dong-A ST Co., Ltd., priority 2022, published 2024).

These compounds were tested against GCN2 (Homo sapiens (Human), UniProt Q9P2K8) (assay: GCN2 Biochemical Assay (TR-FRET, GFP-eIF2S1 substrate phosphorylation)). Conditions: read-out: IC50 (GCN2 Inhibitory Activity).
GCN2, sequence (Q9P2K8 whole entry): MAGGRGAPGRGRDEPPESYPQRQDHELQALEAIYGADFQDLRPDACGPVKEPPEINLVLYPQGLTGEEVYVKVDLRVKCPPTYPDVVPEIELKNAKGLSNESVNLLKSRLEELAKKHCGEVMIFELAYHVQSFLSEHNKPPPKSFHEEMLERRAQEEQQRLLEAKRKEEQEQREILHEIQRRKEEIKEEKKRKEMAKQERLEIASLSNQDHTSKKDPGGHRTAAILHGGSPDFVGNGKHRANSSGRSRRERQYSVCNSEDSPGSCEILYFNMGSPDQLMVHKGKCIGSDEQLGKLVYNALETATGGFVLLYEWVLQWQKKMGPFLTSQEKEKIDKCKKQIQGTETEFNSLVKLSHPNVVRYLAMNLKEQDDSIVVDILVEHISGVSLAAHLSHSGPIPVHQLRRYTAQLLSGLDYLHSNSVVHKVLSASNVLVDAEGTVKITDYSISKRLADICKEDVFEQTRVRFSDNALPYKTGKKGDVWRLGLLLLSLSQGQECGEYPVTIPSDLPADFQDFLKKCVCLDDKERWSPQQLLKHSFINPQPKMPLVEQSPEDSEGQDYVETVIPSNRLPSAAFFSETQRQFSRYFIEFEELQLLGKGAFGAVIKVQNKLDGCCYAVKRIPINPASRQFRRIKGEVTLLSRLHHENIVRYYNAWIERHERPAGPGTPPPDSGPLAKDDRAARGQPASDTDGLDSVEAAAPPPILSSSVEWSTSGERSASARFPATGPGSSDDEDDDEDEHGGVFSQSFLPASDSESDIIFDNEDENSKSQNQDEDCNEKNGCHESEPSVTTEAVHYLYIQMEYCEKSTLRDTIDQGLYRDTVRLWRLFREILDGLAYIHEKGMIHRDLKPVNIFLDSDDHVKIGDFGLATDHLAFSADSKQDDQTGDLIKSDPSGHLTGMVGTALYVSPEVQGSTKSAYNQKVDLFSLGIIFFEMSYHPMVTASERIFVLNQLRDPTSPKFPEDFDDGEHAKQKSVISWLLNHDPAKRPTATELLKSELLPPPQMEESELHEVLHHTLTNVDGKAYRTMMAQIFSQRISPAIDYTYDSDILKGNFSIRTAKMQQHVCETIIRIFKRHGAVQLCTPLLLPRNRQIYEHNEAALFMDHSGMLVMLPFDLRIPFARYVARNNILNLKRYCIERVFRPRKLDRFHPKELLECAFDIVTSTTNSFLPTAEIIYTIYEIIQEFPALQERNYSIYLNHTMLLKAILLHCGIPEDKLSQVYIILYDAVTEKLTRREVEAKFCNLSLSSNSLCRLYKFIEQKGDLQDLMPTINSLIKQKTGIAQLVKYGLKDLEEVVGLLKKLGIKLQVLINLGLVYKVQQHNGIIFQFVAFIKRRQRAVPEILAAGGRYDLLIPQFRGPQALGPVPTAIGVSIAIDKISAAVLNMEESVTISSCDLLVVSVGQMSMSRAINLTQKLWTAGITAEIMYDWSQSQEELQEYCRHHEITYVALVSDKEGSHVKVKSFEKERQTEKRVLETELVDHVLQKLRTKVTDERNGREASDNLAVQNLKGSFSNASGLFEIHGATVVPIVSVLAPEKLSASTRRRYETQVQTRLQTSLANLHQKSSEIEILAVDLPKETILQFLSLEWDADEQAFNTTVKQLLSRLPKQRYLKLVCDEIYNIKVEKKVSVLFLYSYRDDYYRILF
Summary of the method: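 In-house GCN2 (1.6 nM 2× stock) phosphorylates GFP-eIF2S1 (50 nM 2× stock) with ATP (0.2 mM 2× stock) and tRNA, pH 7.5, 70 min at room temperature; 10-point 3.16-fold compound series. TR-FRET detection with Tb-anti-phospho antibody, 2–3 h, Ex 340/Em 490/520 nm; artifact plate spiked with phospho-substrate.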
Compound `Cc1cnc(Nc2cc(C)n(C)n2)nc1-c1c[nH]c2c(NC(=O)CN3CC[C@H](Oc4ccnc(NCCN(C)C)n4)C3)cccc12` [Example 217, (S)-N-(3-(2-((1,5-dimethyl-1H-pyrazol-3-yl)amino)-5-methylpyrimidin-4-yl)-1H-indol-7-yl)-2-(3-((2-((2-(dimethylamino)ethyl)amino)pyrimidin-4-yl)oxy)pyrrolidin-1-yl)acetamide] has an IC50 of less than 10 nM.
In the case of `Cc1cnc(Nc2cc(C)n(C)n2)nc1-c1c[nH]c2c(NC(=O)CN3CC[C@H](Oc4ccnc(NCCCN(C)C)n4)C3)cccc12` [Example 218, (S)-N-(3-(2-((1,5-dimethyl-1H-pyrazol-3-yl)amino)-5-methylpyrimidin-4-yl)-1H-indol-7-yl)-2-(3-((2-((3-(dimethylamino)propyl)amino)pyrimidin-4-yl)oxy)pyrrolidin-1-yl)acetamide], the IC50 is reported as less than 10 nM.
Work on `CONc1nccc(O[C@H]2CCN(CC(=O)Nc3cccc4c(-c5nc(Nc6cc(C)n(C)n6)ncc5C)c[nH]c34)C2)n1` [Example 219, (S)-N-(3-(2-((1,5-dimethyl-1H-pyrazol-3-yl)amino)-5-methylpyrimidin-4-yl)-1H-indol-7-yl)-2-(3-((2-(methoxyamino)pyrimidin-4-yl)oxy)pyrrolidin-1-yl)acetamide] yielded an IC50 of less than 10 nM.
Compound `Cc1cnc(Nc2cc(C)n(C)n2)nc1-c1c[nH]c2c(NC(=O)CN3CC[C@H](Oc4ccnc(N(C)C)n4)C3)cccc12` [Example 220, (S)-N-(3-(2-((1,5-dimethyl-1H-pyrazol-3-yl)amino)-5-methylpyrimidin-4-yl)-1H-indol-7-yl)-2-(3-((2-(dimethylamino)pyrimidin-4-yl)oxy)pyrrolidin-1-yl)acetamide] has an IC50 of 10 to 100 nM.
Work on `Cc1cnc(Nc2cc(C)n(C)n2)nc1-c1c[nH]c2c(NC(=O)CN3CC[C@H](Oc4ccnc(N(C)Cc5ccccc5)n4)C3)cccc12` [Example 221, (S)-2-(3-((2-(benzyl(methyl)amino)pyrimidin-4-yl)oxy)pyrrolidin-1-yl)-N-(3-(2-((1,5-dimethyl-1H-pyrazol-3-yl)amino)-5-methylpyrimidin-4-yl)-1H-indol-7-yl)acetamide] yielded an IC50 of 100 to 1000 nM.
For `Cc1cnc(Nc2cc(C)n(C)n2)nc1-c1c[nH]c2c(NC(=O)CN3CC[C@H](Oc4ccnc(N5CCCC5)n4)C3)cccc12` [Example 222, (S)-N-(3-(2-((1,5-dimethyl-1H-pyrazol-3-yl)amino)-5-methylpyrimidin-4-yl)-1H-indol-7-yl)-2-(3-((2-(pyrrolidin-t-yl)pyrimidin-4-yl)oxy)pyrrolidin-1-yl)acetamide], the IC50 was 10 to 100 nM.
Work on `Cc1cnc(Nc2cc(C)n(C)n2)nc1-c1c[nH]c2c(NC(=O)CN3CC[C@H](Oc4ccnc(N5CCCCC5)n4)C3)cccc12` [Example 223, (S)-N-(3-(2-((1,5-dimethyl-1H-pyrazol-3-yl)amino)-5-methylpyrimidin-4-yl)-1H-indol-7-yl)-2-(3-((2-(piperidin-1-yl)pyrimidin-4-yl)oxy)pyrrolidin-1-yl)acetamide] yielded an IC50 of 10 to 100 nM.
`Cc1cnc(Nc2cc(C)n(C)n2)nc1-c1c[nH]c2c(NC(=O)CN3CC[C@H](Oc4ccnc(N5CCOCC5)n4)C3)cccc12` [Example 224, (S)-N-(3-(2-((1,5-dimethyl-1H-pyrazol-3-yl)amino)-5-methylpyrimidin-4-yl)-1H-indol-7-yl)-2-(3-((2-morpholinopyrimidin-4-yl)oxy)pyrrolidin-1-yl)acetamide] showed an IC50 of less than 10 nM.
In the case of `Cc1cnc(Nc2cc(C)n(C)n2)nc1-c1c[nH]c2c(NC(=O)CN3CC[C@H](Oc4ccnc(N5CCN(C)CC5)n4)C3)cccc12` [Example 225, (S)-N-(3-(2-((1,5-dimethyl-1H-pyrazol-3-yl)amino)-5-methylpyrimidin-4-yl)-1H-indol-7-yl)-2-(3-((2-(4-methylpiperazin-1-yl)pyrimidin-4-yl)oxy)pyrrolidin-1-yl)acetamide], the IC50 is reported as less than 10 nM.
For `Cc1cnc(Nc2cc(C)n(C)n2)nc1-c1c[nH]c2c(NC(=O)CN3CC[C@H](Oc4nc(N)ncc4F)C3)cccc12` [Example 226, (S)-2-(3-((2-amino-5-fluoropyrimidin-4-yl)oxy)pyrrolidin-1-yl)-N-(3-(2-((1,5-dimethyl-1H-pyrazol-3-yl)amino)-5-methylpyrimidin-4-yl)-1H-indol-7-yl)acetamide], the IC50 was less than 10 nM.
For `Cc1cnc(Nc2cc(C)n(C)n2)nc1-c1c[nH]c2c(NC(=O)CN3CC[C@H](Oc4nc(NC5CC5)ncc4F)C3)cccc12` [Example 227, (S)-2-(3-((2-(cyclopropylamino)-5-fluoropyrimidin-4-yl)oxy)pyrrolidin-1-yl)-N-(3-(2-((1,5-dimethyl-1H-pyrazol-3-yl)amino)-5-methylpyrimidin-4-yl)-1H-indol-7-yl)acetamide], the IC50 was less than 10 nM.
`Cc1cnc(Nc2cc(C)n(C)n2)nc1-c1c[nH]c2c(NC(=O)CN3CC[C@H](Oc4nc(NC5CCCCC5)ncc4F)C3)cccc12` [Example 228, (S)-2-(3-((2-(cyclohexylamino)-5-fluoropyrimidin-4-yl)oxy)pyrrolidin-1-yl)-N-(3-(2-((1,5-dimethyl-1H-pyrazol-3-yl)amino)-5-methylpyrimidin-4-yl)-1H-indol-7-yl)acetamide] showed an IC50 of 10 to 100 nM.
With `Cc1cnc(Nc2cc(C)n(C)n2)nc1-c1c[nH]c2c(NC(=O)CN3CC[C@H](Oc4nc(NCC5CC5)ncc4F)C3)cccc12` [Example 229, (S)-2-(3-((2-((cyclopropylmethyl)amino)-5-fluoropyrimidin-4-yl)oxy)pyrrolidin-1-yl)-N-(3-(2-((1,5-dimethyl-1H-pyrazol-3-yl)amino)-5-methylpyrimidin-4-yl)-1H-indol-7-yl)acetamide] the IC50 was 10 to 100 nM.
`Cc1cnc(Nc2cc(C)n(C)n2)nc1-c1c[nH]c2c(NC(=O)CN3CC[C@H](Oc4nc(NCc5ccccc5)ncc4F)C3)cccc12` [Example 230, (S)-2-(3-((2-(benzylamino)-5-fluoropyrimidin-4-yl)oxy)pyrrolidin-1-yl)-N-(3-(2-((1,5-dimethyl-1H-pyrazol-3-yl)amino)-5-methylpyrimidin-4-yl)-1H-indol-7-yl)acetamide] was tested, and the IC50 was 10 to 100 nM.
In the case of `Cc1cnc(Nc2cc(C)n(C)n2)nc1-c1c[nH]c2c(NC(=O)CN3CC[C@H](Oc4nc(N(C)C)ncc4F)C3)cccc12` [Example 231, (S)-N-(3-(2-((1,5-dimethyl-1H-pyrazol-3-yl)amino)-5-methylpyrimidin-4-yl)-1H-indol-7-yl)-2-(3-((2-(dimethylamino)-5-fluoropyrimidin-4-yl)oxy)pyrrolidin-1-yl)acetamide], the IC50 is reported as 10 to 100 nM.
Compound `Cc1cnc(Nc2cc(C)n(C)n2)nc1-c1c[nH]c2c(NC(=O)CN3CC[C@H](Oc4nc(N5CCOCC5)ncc4F)C3)cccc12` [Example 232, (S)-N-(3-(2-((1,5-dimethyl-1H-pyrazol-3-yl)amino)-5-methylpyrimidin-4-yl)-1H-indol-7-yl)-2-(3-((5-fluoro-2-morpholinopyrimidin-4-yl)oxy)pyrrolidin-1-yl)acetamide] has an IC50 of less than 10 nM.
For `Cc1cnc(Nc2cc(C)n(C)n2)nc1-c1c[nH]c2c(NC(=O)CN3CC[C@H](Oc4nc(N5CCN(C)CC5)ncc4F)C3)cccc12` [Example 233, (S)-N-(3-(2-((1,5-dimethyl-1H-pyrazol-3-yl)amino)-5-methylpyrimidin-4-yl)-1H-indol-7-yl)-2-(3-((5-fluoro-2-(4-methylpiperazin-1-yl)pyrimidin-4-yl)oxy)pyrrolidin-1-yl)acetamide], the IC50 was less than 10 nM.
With `Cc1cnc(Nc2cc(C)n(C)n2)nc1-c1c[nH]c2c(NC(=O)CN3CC[C@H](Oc4cc(F)nc(NC5CC5)n4)C3)cccc12` [Example 234, (S)-2-(3-((2-(cyclopropylamino)-6-fluoropyrimidin-4-yl)oxy)pyrrolidin-1-yl)-N-(3-(2-((1,5-dimethyl-1H-pyrazol-3-yl)amino)-5-methylpyrimidin-4-yl)-1H-indol-7-yl)acetamide] the IC50 was less than 10 nM.
`Cc1cnc(NC2CC2)nc1O[C@H]1CCN(CC(=O)Nc2cccc3c(-c4nc(Nc5cc(C)n(C)n5)ncc4C)c[nH]c23)C1` [Example 235, (S)-2-(3-((2-(cyclopropylamino)-5-methylpyrimidin-4-yl)oxy)pyrrolidin-1-yl)-N-(3-(2-((1,5-dimethyl-1H-pyrazol-3-yl)amino)-5-methylpyrimidin-4-yl)-1H-indol-7-yl)acetamide] showed an IC50 of 10 to 100 nM.
Compound `Cc1cc(O[C@H]2CCN(CC(=O)Nc3cccc4c(-c5nc(Nc6cc(C)n(C)n6)ncc5C)c[nH]c34)C2)nc(NC2CC2)n1` [Example 236, (S)-2-(3-((2-(cyclopropylamino)-6-methylpyrimidin-4-yl)oxy)pyrrolidin-1-yl)-N-(3-(2-((1,5-dimethyl-1H-pyrazol-3-yl)amino)-5-methylpyrimidin-4-yl)-1H-indol-7-yl)acetamide] has an IC50 of less than 10 nM.
Compound `Cc1cnc(Nc2cc(C)n(C)n2)nc1-c1c[nH]c2c(NC(=O)CN3CC[C@H](Oc4cc(C(F)(F)F)nc(NC5CC5)n4)C3)cccc12` [Example 237, (S)-2-(3-((2-(cyclopropylamino)-6-(trifluoromethyl)pyrimidin-4-yl)oxy)pyrrolidin-1-yl)-N-(3-(2-((1,5-dimethyl-1H-pyrazol-3-yl)amino)-5-methylpyrimidin-4-yl)-1H-indol-7-yl)acetamide] has an IC50 of 10 to 100 nM.
`COc1cc(O[C@H]2CCN(CC(=O)Nc3cccc4c(-c5nc(Nc6cc(C)n(C)n6)ncc5C)c[nH]c34)C2)nc(NC2CC2)n1` [Example 238, (S)-2-(3-((2-(cyclopropylamino)-6-methoxypyrimidin-4-yl)oxy)pyrrolidin-1-yl)-N-(3-(2-((1,5-dimethyl-1H-pyrazol-3-yl)amino)-5-methylpyrimidin-4-yl)-1H-indol-7-yl)acetamide] was tested, and the IC50 was less than 10 nM.
`Cc1cnc(Nc2cc(C)n(C)n2)nc1-c1c[nH]c2c(NC(=O)CN3CC[C@H](Oc4cnc(NCCN(C)C)nc4)C3)cccc12` [Example 239, (S)-N-(3-(2-((1,5-dimethyl-1H-pyrazol-3-yl)amino)-5-methylpyrimidin-4-yl)-1H-indol-7-yl)-2-(3-((2-((2-(dimethylamino)ethyl)amino)pyrimidin-5-yl)oxy)pyrrolidin-1-yl)acetamide] gave an IC50 of 10 to 100 nM.
